Our source for the AC50 values is PubChem BioAssay AID463074 (Broad Institute, 2010).

Calls of active or inactive are those of the source.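 How the source made its calls: active means AC50 no more than tenfold above the top dose tested, or full inhibition at every dose with a flat fit (cut at about 19 µM in these data); inconclusive means flat curve fit with inhibition between 30% and 70%, or poor fit; inactive means AC50 more than tenfold above the top dose tested.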

This experiment deals with HMLE_sh_eGFP viability, CellTiter-Glo luminescence, 72 h. As to the kind of experiment: viability loss of HMLE_sh_eGFP cells – cell-based, luminescence, counter-screen for HMLE_sh_ECad selective toxicity project, dose response (AID 463074).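 Further: counterscreen control line to flag general toxicity for the HMLE_sh_ECad screen; potency for loss of viability as luminescence drops below DMSO wells.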 Background: Counterscreens check selectivity or assay interference.
One may read the AC50 as the concentration at which the activity in the assay is half-maximal. As for `O=C(c1ccccc1)c1c[nH]c(C(=O)NNc2ccccc2)c1`, the AC50 was 1.53 µM. As for `Cc1ccc(C(=O)ONc2ccc(N=NC(=O)c3ccccc3O)cc2)cc1`, the AC50 was 3.56 µM. Regarding `CC(=O)Nc1ccc(SCC(=O)c2cc(C)n(-c3ccccc3)c2C)cc1`, the AC50 is 13.3 µM. Take `NS(=O)(=O)c1ccc(N=Cc2c(O)n(C3CCCCC3)c(=O)n(C3CCCCC3)c2=O)cc1`: the AC50 was 3.81 µM. With `CC1CCCCN1c1cc(C#N)c(C#N)cc1[N+](=O)[O-]` (stereo not given), the AC50 was 1.77 µM.

`N#Cc1c(-c2ccccc2)c(-c2ccccc2)nn(CC(=O)NNC(=O)Nc2ccc(Cl)c(Cl)c2)c1=O`: the AC50 was 3.28 µM. Regarding `O=C(O)c1cccc(S(=O)(=O)NNc2ccccc2C(F)(F)F)c1`, the AC50 is 11.3 µM. Consider `OC(CNCc1ccco1)Cn1c2ccc(Br)cc2c2cc(Br)ccc21` (stereo not given), for which the AC50 was 3.64 µM. On to `CCOC(=S)SCC(=O)Nc1nc(-c2ccc(Br)cc2)cs1`, for which the AC50 was 3.54 µM. Turning to `Cc1cc(Br)c(OCc2ccc(C(=O)N/N=C/c3ccc[nH]3)cc2)c(Br)c1`, the AC50 is 1.32 µM. Under `CCCOc1c(Cl)cc(C(=O)Nc2ccc3c(c2)OCO3)cc1OCC` stands 5.39 µM; under `COc1ccc(Nc2nnc(-c3ccccc3)c3ccccc23)cc1C(=O)N1CCCCC1`, > 19.5 µM (inactive); under `C=C1CCc2c([nH]c3ccc(OCC(C)C)cc23)C1=O`, 5.57 µM.

Take `C=CCCC(=O)Nc1nc(C)c(-c2csc(Nc3cc(OC)ccc3OC)n2)s1`: the AC50 was 1.02 µM.

As to `COc1cc(OC)cc(-c2sc3ccc(OC)cc3c2-c2ccc(O)cc2)c1`, the AC50 is 3.41 µM. In the case of `Oc1ccccc1N1CCN(c2ncnc3sc(-c4ccccc4)cc23)CC1`, the AC50 is 3.53 µM. For `O=C(Nc1ccc(Cl)c(C(F)(F)F)c1)NC1CC2CCCC(C1)N2Cc1ccccc1` (stereo not given), the AC50 was 6.8 µM. As to `CCCCCc1cc(=O)oc2c(C(CCN3CCCC(C)C3)c3ccc4c(c3)OCO4)c(OC)cc(OC)c12` (stereo not given), the AC50 is 6.78 µM. With `CN(C)/C=C(\C=N\OCc1ccc(Cl)cc1Cl)C(=O)Nc1ccc(Cl)c(Cl)c1`, the AC50 is 4.22 µM. With `Cc1ccc(-c2nc(CS(=O)CC(=O)NCc3ccc4c(c3)OCO4)c(C)o2)cc1` (stereo not given), the AC50 was > 19.5 µM (inactive).

With `Cc1ccccc1C(=O)Nc1ccc(-c2nc3ccc(C(=O)c4ccccc4)cc3[nH]2)cc1`, the AC50 is 1.8 µM. As to `O=c1nc(/C=C/c2ccc(Cl)cc2Cl)cc(C(F)(F)F)[nH]1`, the AC50 is 1.55 µM.

For the compound `CNC(C)C(=O)NC(C(=O)N1CCCC1C(=O)NNc1ccccc1)C(C)C` (stereo not given), the AC50 was 6.41 µM. Consider `COc1ccc(/C=C/c2nc3cc(-c4ccccc4)ccc3o2)cc1O`, for which the AC50 is 9.18 µM.

For `CC(NC(=O)c1ccc([N+](=O)[O-])o1)C12CC3CC(CC(C3)C1)C2` (stereo not given), the AC50 is 9.54 µM. Turning to `C/C(=N/Nc1ccc([N+](=O)[O-])cc1)c1ccc(C)cc1C`, the AC50 is 7.68 µM. In the case of `O=C(Nc1ccc(Cl)cc1)c1nc[nH]c1C(=O)NCCN(CCNC(=O)c1[nH]cnc1C(=O)Nc1ccc(Cl)cc1)CCNC(=O)c1[nH]cnc1C(=O)Nc1ccc(Cl)cc1`, the AC50 is 4.36 µM. On to `C=C(C)CNC(=S)NNC(=O)CCn1c2ccc(Cl)cc2c2cc(Cl)ccc21`, for which the AC50 was 1.8 µM. For the compound `O=C(Nc1ccc(Cl)c(Cl)c1)Nc1ccccc1NS(=O)(=O)c1cccs1`, the AC50 is 13.6 µM. `Fc1ccc(C(c2ccc(F)cc2)N2CCN(C/C=C/c3ccccc3)CC2)cc1`: the AC50 was 7.18 µM. With `CC(=O)Nc1ccc(-c2csc(NC(=O)Cc3cccc(F)c3)n2)cc1`, the AC50 was 5.64 µM. Turning to `C[C@@H]1CN([C@H](C)CO)C(=O)c2cc(NC(=O)Nc3ccc(C(F)(F)F)cc3)ccc2O[C@H]1CN(C)S(=O)(=O)c1ccc(Cl)cc1`, the AC50 is 3.84 µM.

With `Cc1cc([N+](=O)[O-])nn1Cc1ccc(C(=O)N/N=C/c2ccc(O)cc2O)cc1`, the AC50 was 2.25 µM. Turning to `CCOC(=O)/C(C#N)=C1\Nc2ccccc2N=C1N(CC(C)C)CC(C)C`, the AC50 was 8.73 µM. For the compound `CCCCCc1cc(=O)oc2c(C(CCN3CCCCC3)c3ccc(OC)cc3)c(OC)cc(OC)c12` (stereo not given), the AC50 was 7.47 µM. Regarding `O=C(NCCc1c[nH]c2ccccc12)C(=O)c1c[nH]c2ccccc12`, the AC50 was 6.75 µM.

As to `CCCCOC(=O)c1c(C)oc2ccc(NS(=O)(=O)c3ccc4c5c(cccc35)C(=O)N4)cc12`, the AC50 is 9.12 µM. With `CC(C)Oc1cccc(C(=O)NC(=S)Nc2ccccc2N2CCOCC2)c1`, the AC50 is 13.9 µM. Regarding `CC1CCCC(NCC(O)COC(c2ccc(F)cc2)c2ccc(F)cc2)C1C` (stereo not given), the AC50 is 6.69 µM. As for `CCN1CCN(c2cc(C(C)(C)C)nc3c(-c4ccccc4)c(C)nn23)CC1`, the AC50 is 6.81 µM.

As for `O=C(COCc1cc(-c2ccc3c(c2)OCO3)on1)N1CCN(c2cccc(C(F)(F)F)c2)CC1`, the AC50 is 2.69 µM. `O=c1[nH]c(=O)n(C2C[C@H](O)[C@@H](CO)O2)cc1C(F)(F)F` (stereo not given in full): the AC50 was 0.946 µM. Take `COc1ccc(Sc2ccc(-c3nc4cnccn4c3NC3CCCCC3)cc2OC)cc1`: the AC50 is 3.57 µM. On to `COc1ccc(C(=O)/C=C/c2ccc(N3CCCCC3)c([N+](=O)[O-])c2)c(OC)c1`, for which the AC50 is 6.6 µM.

As to `CCCCN(CC)S(=O)(=O)c1ccc(C(=O)N(CCCN(C)C)c2nc3cc(C)cc(C)c3s2)cc1`, the AC50 was 7.21 µM.

Take `COc1ccc(C2NCCc3c2[nH]c2ccccc32)cc1COc1ccc(F)cc1` (stereo not given): the AC50 was 7.34 µM. As to `CN(C)c1ccc(-c2cc(O)c3ncccc3c2)cc1`, the AC50 is 12.8 µM. Under `O=[N+]([O-])/C=C/c1cn(Cc2ccc(F)cc2)c2ccccc12` stands 6.86 µM; under `C[C@]12CC[C@H](O)C[C@H]1CC[C@@H]1C2CC[C@]2(C)[C@@H](C3=CC(=O)OC3)[C@@H](O)C[C@]12O` (stereo not given in full), 1.55 µM. With `CCOC(=O)c1c(C)[nH]c(C(=O)N/N=C\c2ccccc2O)c1C` the figure was 8.76 µM. `Oc1ccc(-c2cnc(-c3ccc(O)cc3)nc2)cc1`: the AC50 was 0.304 µM. On to `COc1ccc(/C=C2/C(=O)N(c3nc4ccccc4s3)N=C2CSc2ccc(Cl)cc2)cc1`, for which the AC50 is 6.5 µM. Turning to `Fc1ccc2[nH]c3c(N4CCc5ccccc5C4)ncnc3c2c1`, the AC50 is 7.36 µM.

For `CCCC(=O)NC(c1ccco1)c1cc([N+](=O)[O-])c2cccnc2c1O` (stereo not given), the AC50 is 7.35 µM. `CN(C)CCNC=C(C(=O)Nc1ccc(Cl)cc1Cl)C(=O)Nc1ccc(Cl)cc1Cl`: the AC50 was 9.23 µM. Under `COc1cc(S(=O)(=O)N2CCCCCC2)c(OC)cc1Br` stands 2.55 µM; under `CCCCNc1c(-c2cccc(-c3cc(C(C)=O)cs3)c2)nc2ccc(C)cn12`, 3.48 µM. With `CC[C@H]1CC2CN3CCc4c([nH]c5c([C@H]6C[C@H]7[C@H](CC)CN(C)[C@@H](Cc8c6[nH]c6ccccc86)[C@H]7C(=O)OC)c(OC)ccc45)C(C(=O)OC)(C2)C13` the figure was 4.25 µM; with `N#Cc1c(-c2ccccc2)nc(SCc2cccc(Cl)c2)[nH]c1=O`, 7.69 µM; with `CN(C)c1ccc(-c2cc([C@H]3[C@@H]4C=CCC[C@@]4(C)C(=O)N3Cc3ccccc3)ccc2F)cc1`, 6.46 µM. `O=C(Nc1ccc(N2CCN(C(=O)c3cccs3)CC2)cc1)c1ccc([N+](=O)[O-])o1`: the AC50 is 1.87 µM. Take `COc1cccc(C(=O)/C=C/c2ccc(N3CCCCC3)c([N+](=O)[O-])c2)c1`: the AC50 is 6.69 µM.

For the compound `N#C/C(=C\c1c[nH]c2ccc(Br)cc12)c1ccccn1`, the concentration at half-maximal activity (AC50) was 10.3 µM. Regarding `Cn1c(=O)c(C(=O)NNC(=O)c2ccc(Br)cc2)c(O)c2ccccc21`, the AC50 is 5.69 µM. As for `Oc1cccc(C(O)CNCc2ccc(OCc3ccc(Cl)cc3Cl)cc2)c1` (stereo not given), the AC50 is 7.09 µM. Take `Cc1ccc(/C=C/C(=O)NCCc2ccccc2)o1`: the AC50 was > 19.5 µM (inactive). Regarding `c1cn2c(NC3CCCCC3)c(-c3ccc(SC4CCCCC4)cc3)nc2cn1`, the AC50 is 3.26 µM. Turning to `CCOC(=O)c1cnc2ccc(OCC)cc2c1NCc1ccccc1OC`, the AC50 is 4.7 µM. Under `N#CC1=C(N)N2C(=C(C#N)C1c1ccc(Br)cc1)Nc1ccccc12` (stereo not given) stands 2.99 µM. `Clc1ccc(C(Cn2ccnc2)OCc2csc3c(Cl)cccc23)c(Cl)c1` (stereo not given): the AC50 is 3.16 µM. As for `COc1ccccc1-c1cc(C(F)(F)F)nc(S(C)(=O)=O)n1`, the AC50 was 6.13 µM. In the case of `Cc1cccc(OCc2n(CC(=O)OC3CC(C)CCC3C(C)C)c3ccccc3[n+]2C)c1` (stereo not given), the AC50 was 3.47 µM. `COc1cc2cnc(-c3ccccc3)c(-c3cccc(C(F)(F)F)c3)c2cc1OC`: the AC50 is 6.67 µM. For `CC1=CC(=O)C(C(C)C)=C/C1=C(\c1cc(C(C)C)c(OP(=O)(O)O)cc1C)c1ccccc1C(=O)O`, the AC50 was 3.6 µM. With `COc1ccc(OC)c(-c2csc(NC(=O)c3ccc(F)cc3)n2)c1` the figure was 6.89 µM. In the case of `CCCCCCSc1ccc(-c2nc3cnccn3c2NCCCC)cc1`, the AC50 was 4.07 µM. Under `COc1ccc(/C=C/C(=O)c2ccc(O)cc2)cc1COc1ccc(F)cc1` stands 4.37 µM; under `O=C1CC(=Nc2ccccc2)NN1c1ccccc1`, 12.4 µM. In the case of `O=C(O)CCN1C(=O)C(=C2CCCCCC2)SC1=S`, the AC50 was > 19.5 µM (inactive). Take `Cc1ccc(-c2nc(Nc3cccc(O)c3)c3ccccc3n2)cc1`: the AC50 was 7.23 µM. Under `CC(=O)c1ccc(N2CCN(S(=O)(=O)c3cc(-c4cc(C)no4)ccc3C(C)C)CC2)cc1` stands 0.205 µM; under `O=c1[nH]c(=O)n(CCC2=CCCCC2)c(O)c1/C=N/Nc1ccccc1`, 3.76 µM.

For `O=C(COCC(=O)Nc1cccc(C(F)(F)F)c1)Nc1cccc(C(F)(F)F)c1`, the AC50 is 7.59 µM. With `COc1ccc([N+](=O)[O-])cc1Nc1c2ccccc2nc2ccccc12`, the AC50 is 1.43 µM. Under `Cc1ccc2nc(Cl)c3cc(C(=O)N(CCN(C)C)Cc4ccco4)sc3c2c1` stands 3.53 µM; under `CN(/N=C/c1cc(Br)cc(Br)c1O)c1cccc(C(F)(F)F)n1`, 12.7 µM. For the compound `Oc1ccc(N=Nc2nc(-c3ccccc3)c(-c3ccccc3)[nH]2)cc1`, the AC50 was 4.53 µM. In the case of `O=c1c2ccccc2nc2n1CCc1c-2[nH]c2ccccc12`, the AC50 is > 19.5 µM (inactive). With `Cc1ccsc1/C=C/c1ccc2cccc(O)c2n1`, the AC50 was 17 µM. Turning to `CC1CC/C(=C\c2ccc3c(c2)OCO3)C(=O)/C1=C/c1ccc2c(c1)OCO2` (stereo not given), the AC50 was 5.09 µM.
